Laboratory results from PubChem BioAssay AID1996.
Converted amounts (≈) assume the structure as drawn.

details: buffer; pH 7.4; 200.0 µM

Compared with `O=C1NC(=S)NC(=O)C1=Cc1ccc(OCC(=O)N2CCCC2)cc1`, `O=C1CC2(CCN(C(=O)COc3ccc(F)cc3)CC2)Oc2ccccc21` is higher in solubility kinetic: 51.8 µg/mL (≈ 144 µM) for the first, over 55.4 µg/mL for the second.

Compared with `Cc1ccc(C(=O)OCC(=O)Nc2ccccc2Cl)c(O)c1`, `Cc1cc(-c2ccccc2C(=O)Nc2ccccc2O)on1` is higher in solubility kinetic: 0.8 µg/mL (≈ 2.5 µM) for the first, over 44.1 µg/mL for the second.

`CC(=O)NCCc1nc2cc(NC(=O)Nc3ccccc3)ccc2n1C` and `CCOc1ccccc1NC(=O)Nc1cccc(NC(C)=O)c1` cannot be ordered by solubility kinetic: over 52.7 µg/mL for the first, over 47 µg/mL for the second.

`CC(O)c1nc2ccccc2n1CCCc1ccccc1` (centres undefined) and `Nc1cc(=O)[nH]c(=O)n1CCc1ccccc1` cannot be ordered by solubility kinetic: over 42.1 µg/mL for the first, over 34.7 µg/mL for the second.

Compared with `CCc1ccc(OCC(=O)Nc2ccc3oc(=O)ccc3c2)cc1`, `COc1ccc(CCNC(=O)COc2ccc(C)nc2[N+](=O)[O-])cc1` is higher in solubility kinetic: 1.5 µg/mL (≈ 4.64 µM) for the first, over 51.8 µg/mL for the second.

Going from `NC(=O)CSc1nc2ccc([N+](=O)[O-])cc2[nH]1` to `O=c1[nH]c(Sc2ccc([N+](=O)[O-])cc2[N+](=O)[O-])nc2ccccc12`, the solubility kinetic falls from over 37.8 µg/mL to 26.3 µg/mL (≈ 76.4 µM).

Compared with `CCc1cccc(NC(=O)c2ccc3c(=O)n4c(nc3c2)CCCCC4)c1`, `Cc1[nH]c(SCC(=O)Nc2cc(C(N)=O)cc(C(N)=O)c2)nc1Cc1ccccc1` is higher in solubility kinetic: 9.2 µg/mL (≈ 25.5 µM) for the first, over 63.5 µg/mL for the second.

Going from `Cl.Nc1cccc(Nc2ncnc3ccccc23)c1` to `CCN(C(=O)CSc1nccc(=O)[nH]1)c1cccc2ccccc12`, the solubility kinetic rises from 31.9 µg/mL to over 50.9 µg/mL.

Compared with `Cc1ccc(CC(CC(=O)O)C(=O)Nc2ccc(Cl)cc2)cc1` (centres undefined), `Cc1ccc(NCCC(=O)c2cccs2)cc1` is 2.7-fold lower in solubility kinetic: 48.6 µg/mL (≈ 146 µM) for the first, 17.9 µg/mL (≈ 73 µM) for the second.

Going from `COC(=O)c1[nH]c2c(c1C)C(=O)CC(c1ccc(OC)cc1)C2` (centres undefined) to `O=C(O)CN=CC1=C(O)CC(c2ccccc2)CC1=O` (centres undefined), the solubility kinetic rises from 2.7 µg/mL (≈ 8.62 µM) to 39.9 µg/mL (≈ 146 µM) (15-fold).

Going from `CN1CCCN(C(=O)CNC(=O)c2ccc(Cl)cc2Cl)CC1` to `O=C(NC1CCN(Cc2ccccc2)CC1)c1ccc(Cl)cc1Cl`, the solubility kinetic rises from 50.8 µg/mL (≈ 148 µM) to over 54.5 µg/mL.

`FC(c1nc2ccccc2[nH]1)C(F)(F)F` (centres undefined) and `CC(=O)C1=C(O)CC(C)(C)CC1=NCc1nc2ccccc2[nH]1` cannot be ordered by solubility kinetic: over 32.7 µg/mL for the first, over 46.7 µg/mL for the second.

First: O=C(Cc1ccc(F)cc1)Nc1ccc(Cl)cn1
Second: CNC(=O)c1[nH]cnc1C(=O)Nc1ccc(F)cc1
The solubility kinetic of the first is 4.8-fold higher: 8.1 µg/mL (≈ 30.6 µM) for the first, 1.7 µg/mL (≈ 6.48 µM) for the second.

Compared with `CCC(C)C(Nc1ncnc2scc(-c3ccccc3)c12)C(=O)O` (centres undefined), `CC(=O)c1c(C)nc2ccc(C)cc2c1-c1ccccc1` is lower in solubility kinetic: over 51.2 µg/mL for the first, 22.2 µg/mL (≈ 80.6 µM) for the second.

Going from `CCOC(=O)c1c(C=O)c2ccccc2n1Cc1ccccc1F` to `CCOC(=O)CN1C(=O)c2ccccc2Sc2ncccc21`, the solubility kinetic rises from under 0.7 µg/mL to over 47.2 µg/mL.

First: CC(=O)c1c(C)[nH]c(C(=O)COC(=O)CN2C(=O)C3CCCCC3C2=O)c1C (centres undefined)
Second: COCCNc1ccc(N2C(=O)C3CCCCC3C2=O)cc1[N+](=O)[O-] (centres undefined)
The solubility kinetic of the first is higher: over 58.3 µg/mL for the first, 50.8 µg/mL (≈ 146 µM) for the second.

First: CC1(CCBr)C(=O)N(c2ccccc2)c2ccccc21 (centres undefined)
Second: N#CCSc1ccccc1NC(=O)CN1C(=O)C(=O)N(Cc2ccccc2)C1=O
The solubility kinetic of the first is 1.9-fold lower: 22.9 µg/mL (≈ 69.3 µM) for the first, 43.3 µg/mL (≈ 106 µM) for the second.

Going from `COc1ccccc1C(=O)N/C(=C\c1ccccc1)C(=O)NCc1ccco1` to `CCc1noc(C)c1C(=O)OCC(=O)NC(=O)c1ccccc1OC`, the solubility kinetic falls from over 56.5 µg/mL to 18.6 µg/mL (≈ 53.7 µM).

Compared with `CCC(C)NC(=S)Nc1ccc(F)cc1` (centres undefined), `COc1ccccc1/C=C/C(=O)NC(=S)Nc1ccccn1` is lower in solubility kinetic: over 33.9 µg/mL for the first, 1.3 µg/mL (≈ 4.15 µM) for the second.

First: C[N+](C)(C)CCOc1ccc([N+](=O)[O-])cc1.[Br-]
Second: CC(NCC(O)c1ccc([N+](=O)[O-])cc1)C12CC3CC(CC(C3)C1)C2 (centres undefined)
The solubility kinetic of the first is higher: over 45.8 µg/mL for the first, 38.3 µg/mL (≈ 111 µM) for the second.

Compared with `Br.Clc1ccc(CNCC2CCCO2)cc1` (centres undefined), `Cc1ccc(Cl)cc1NC(=O)C1CC1c1ccccc1` (centres undefined) is lower in solubility kinetic: over 46 µg/mL for the first, under 0.6 µg/mL for the second.

Going from `COc1ccc2c(c1)[nH]c1c(=O)n(Cc3ccncc3)cnc12` to `Cc1cc(C)cc(NS(=O)(=O)c2ccc3[nH]c(=O)ccc3c2)c1`, the solubility kinetic falls from 5.1 µg/mL (≈ 16.6 µM) to 1.5 µg/mL (≈ 4.57 µM) (3.4-fold).

Going from `O=C(CSC(=S)N1CCOCC1)Nc1nccs1` to `COc1ccc(S(=O)(=O)N2CC(C)N(C(=O)N3CCOCC3)C2)cc1` (centres undefined), the solubility kinetic rises from 7.9 µg/mL (≈ 26 µM) to over 55.4 µg/mL.

`O=C(c1cccc([N+](=O)[O-])c1)N1CCN(Cc2ccccc2)CC1` and `O=C(CN1CCOCC1)NNc1c2ccccc2nc2ccccc12` cannot be ordered by solubility kinetic: over 48.8 µg/mL for the first, over 50.5 µg/mL for the second.

Compared with `CC1CN(S(=O)(=O)c2ccc(C(=O)O)cc2)CC(C)O1` (centres undefined), `CC(C)c1ccc(S(=O)(=O)NCc2ccc3c(c2)OCO3)cc1` is lower in solubility kinetic: over 44.9 µg/mL for the first, 1.9 µg/mL (≈ 5.7 µM) for the second.

First: O=C1NC(c2ccc(Cl)c([N+](=O)[O-])c2)Nc2ccccc21 (centres undefined)
Second: O=C(CCNC(=O)c1ccccc1Cl)Nc1ccncc1
The solubility kinetic of the first is 5.8-fold lower: 7.7 µg/mL (≈ 25.4 µM) for the first, 44.3 µg/mL (≈ 146 µM) for the second.

`Cc1sc(N2C(=O)C3C(C2=O)[C@H]2C=C[C@@H]3C2)c(C#N)c1C` (some centres undefined) and `COC(=O)c1c(NC(=O)C(C)(C)C)csc1C` are within 1.5-fold of each other in solubility kinetic: 25.6 µg/mL (≈ 85.8 µM) for the first, 18.1 µg/mL (≈ 70.9 µM) for the second.

First: CN(C)S(=O)(=O)Nc1cccc(Br)c1
Second: Cc1cc(C)nc(N2CCC(C(=O)NCc3ccccc3F)CC2)n1
The solubility kinetic of the first is higher: over 41.9 µg/mL for the first, 0.3 µg/mL (≈ 0.876 µM) for the second.

Going from `CC1(c2ccccc2)CC(c2ccccc2)=Nc2ccccc2N1` (centres undefined) to `CSc1nsc(SCC(=O)NCc2ccc(C)cc2)n1`, the solubility kinetic rises from 5.8 µg/mL (≈ 18.6 µM) to 11.8 µg/mL (≈ 36.3 µM) (2-fold).

Work on `CC1(C)CC(=O)C(C=NCCN2CCN(C(=O)CCl)CC2)=C(O)C1` yielded a solubility kinetic of over 53.4 µg/mL.
